From PubChem BioAssay AID1963982 (Molecular Pharmacology Branch, DTP, NCI, 2024)

Test system: 313798-341-R-J2-PDC spheroids, viability
Assay: Anticancer human tumor 313798-341-R-J2-PDC patient-derived cervical squamous cell carcinoma cell line growth inhibition [PI3K]
Conditions: spheroids with HUVEC and MSC; for IC50: curve of first compound; for viability, T/C: stronger effect = lower value
Summary of the method: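 Multi-cell spheroids combine tumor cells with HUVEC and human MSCs, treated with targeted agents alone or with inavolisib, alpelisib, duvelisib or copanlisib. Concentrations fall in half-log steps from at or near clinical Cmax, or from 10 microM where Cmax is unknown; viability read-out.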
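Also: spheroids exposed to compounds for seven days.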
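For viability, T/C in this document: 100% = DMSO vehicle control viability.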

CC1(C)CCC(Nc2ncc(C(F)(F)F)c(-c3c[nH]c4c(P(C)(C)=O)c(C#N)ccc34)n2)CN1 (centres undefined) + CC(Nc1ncnc2nc[nH]c12)c1cc2cccc(Cl)c2c(=O)n1-c1ccccc1
IC50 (second compound 0.0316 µM): < 0.0316 µM | IC50 (second compound 0.1 µM): < 0.0316 µM | IC50 (second compound 0.316 µM): < 0.0316 µM | IC50 (second compound 1 µM): < 0.0316 µM | IC50 (second compound 3.16 µM): < 0.0316 µM | IC50 (second compound 10 µM): < 0.0316 µM | viability, T/C (second compound 0.0316 µM, first compound 0.0316 µM): 54.2% | viability, T/C (second compound 0.0316 µM, first compound 0.1 µM): 46.3% | viability, T/C (second compound 0.0316 µM, first compound 0.316 µM): 46.9% | viability, T/C (second compound 0.0316 µM, first compound 1 µM): 48% | viability, T/C (second compound 0.0316 µM, first compound 3.16 µM): 50.5% | viability, T/C (second compound 0.0316 µM, first compound 10 µM): 60.4% | viability, T/C (second compound 0.1 µM, first compound 0.0316 µM): 47.3% | viability, T/C (second compound 0.1 µM, first compound 0.1 µM): 49.3% | viability, T/C (second compound 0.1 µM, first compound 0.316 µM): 47.3% | viability, T/C (second compound 0.1 µM, first compound 1 µM): 46.8% | viability, T/C (second compound 0.1 µM, first compound 3.16 µM): 50.3% | viability, T/C (second compound 0.1 µM, first compound 10 µM): 66.6% | viability, T/C (second compound 0.316 µM, first compound 0.0316 µM): 49.3% | viability, T/C (second compound 0.316 µM, first compound 0.1 µM): 44.3% | viability, T/C (second compound 0.316 µM, first compound 0.316 µM): 44.3% | viability, T/C (second compound 0.316 µM, first compound 1 µM): 43.8% | viability, T/C (second compound 0.316 µM, first compound 3.16 µM): 51.8% | viability, T/C (second compound 0.316 µM, first compound 10 µM): 62.3% | viability, T/C (second compound 1 µM, first compound 0.0316 µM): 47.4% | viability, T/C (second compound 1 µM, first compound 0.1 µM): 46.8% | viability, T/C (second compound 1 µM, first compound 0.316 µM): 45.5% | viability, T/C (second compound 1 µM, first compound 1 µM): 49.2% | viability, T/C (second compound 1 µM, first compound 3.16 µM): 54% | viability, T/C (second compound 1 µM, first compound 10 µM): 58.2% | viability, T/C (second compound 3.16 µM, first compound 0.0316 µM): 49.2% | viability, T/C (second compound 3.16 µM, first compound 0.1 µM): 45.4% | viability, T/C (second compound 3.16 µM, first compound 0.316 µM): 42.7% | viability, T/C (second compound 3.16 µM, first compound 1 µM): 45.8% | viability, T/C (second compound 3.16 µM, first compound 3.16 µM): 43.7% | viability, T/C (second compound 3.16 µM, first compound 10 µM): 50.3% | viability, T/C (second compound 10 µM, first compound 0.0316 µM): 42.1% | viability, T/C (second compound 10 µM, first compound 0.1 µM): 36.2% | viability, T/C (second compound 10 µM, first compound 0.316 µM): 35% | viability, T/C (second compound 10 µM, first compound 1 µM): 34.5% | viability, T/C (second compound 10 µM, first compound 3.16 µM): 38.1% | viability, T/C (second compound 10 µM, first compound 10 µM): 38.1%

Cn1cnc2c(F)c(Nc3ccc(Br)cc3Cl)c(C(=O)NOCCO)cc21 + COc1c(OCCCN2CCOCC2)ccc2c3n(c(=NC(=O)c4cnc(N)nc4)nc12)CCN3
IC50 (second compound 0.00316 µM): > 3 µM | IC50 (second compound 0.01 µM): > 3 µM | IC50 (second compound 0.0316 µM): 2.96 µM | IC50 (second compound 0.1 µM): < 0.00949 µM | IC50 (second compound 0.316 µM): < 0.00949 µM | IC50 (second compound 1 µM): < 0.00949 µM | viability, T/C (second compound 0.00316 µM, first compound 0.00949 µM): 88% | viability, T/C (second compound 0.00316 µM, first compound 0.03 µM): 93.1% | viability, T/C (second compound 0.00316 µM, first compound 0.0949 µM): 95.2% | viability, T/C (second compound 0.00316 µM, first compound 0.3 µM): 87.6% | viability, T/C (second compound 0.00316 µM, first compound 0.949 µM): 97.3% | viability, T/C (second compound 0.00316 µM, first compound 3 µM): 75.7% | viability, T/C (second compound 0.01 µM, first compound 0.00949 µM): 93.1% | viability, T/C (second compound 0.01 µM, first compound 0.03 µM): 100% | viability, T/C (second compound 0.01 µM, first compound 0.0949 µM): 97.3% | viability, T/C (second compound 0.01 µM, first compound 0.3 µM): 101% | viability, T/C (second compound 0.01 µM, first compound 0.949 µM): 82% | viability, T/C (second compound 0.01 µM, first compound 3 µM): 70.3% | viability, T/C (second compound 0.0316 µM, first compound 0.00949 µM): 84.8% | viability, T/C (second compound 0.0316 µM, first compound 0.03 µM): 75.5% | viability, T/C (second compound 0.0316 µM, first compound 0.0949 µM): 75% | viability, T/C (second compound 0.0316 µM, first compound 0.3 µM): 62.5% | viability, T/C (second compound 0.0316 µM, first compound 0.949 µM): 73.4% | viability, T/C (second compound 0.0316 µM, first compound 3 µM): 46.8% | viability, T/C (second compound 0.1 µM, first compound 0.00949 µM): 45.2% | viability, T/C (second compound 0.1 µM, first compound 0.03 µM): 35.3% | viability, T/C (second compound 0.1 µM, first compound 0.0949 µM): 32.3% | viability, T/C (second compound 0.1 µM, first compound 0.3 µM): 31.6% | viability, T/C (second compound 0.1 µM, first compound 0.949 µM): 26.4% | viability, T/C (second compound 0.1 µM, first compound 3 µM): 17.1% | viability, T/C (second compound 0.316 µM, first compound 0.00949 µM): 12.5% | viability, T/C (second compound 0.316 µM, first compound 0.03 µM): 9.53% | viability, T/C (second compound 0.316 µM, first compound 0.0949 µM): 5.72% | viability, T/C (second compound 0.316 µM, first compound 0.3 µM): 4.75% | viability, T/C (second compound 0.316 µM, first compound 0.949 µM): 3.32% | viability, T/C (second compound 0.316 µM, first compound 3 µM): 2.54% | viability, T/C (second compound 1 µM, first compound 0.00949 µM): 10.1% | viability, T/C (second compound 1 µM, first compound 0.03 µM): 5.21% | viability, T/C (second compound 1 µM, first compound 0.0949 µM): 3.78% | viability, T/C (second compound 1 µM, first compound 0.3 µM): 3.94% | viability, T/C (second compound 1 µM, first compound 0.949 µM): 2.23% | viability, T/C (second compound 1 µM, first compound 3 µM): 1%
